We go through four molecules from paper PMC6949113, “Preclinical evaluation of AT-527, a novel guanosine nucleotide prodrug with potent, pan-genotypic activity against hepatitis C virus” (PLoS ONE, 2020).

Where two headings read alike, the source gives them in different places.

The term IC50 denotes the concentration that gives 50% inhibition. The term AUC(0-t) denotes the area under the concentration-time curve up to a stated or last time point. The term Cmax denotes the maximum level reached in the sampled fluid or tissue. As a reminder, the MRT last is the average time that molecules of a dose stay in the body. As usually defined, the Tmax is the time at which the peak concentration occurs.

Data set [1] can be described thus: Intracellular metabolism in human hepatocytes. The class given is in vitro ADME. On the procedure: (§1) Hepatocytes. […] Cryopreserved male mouse (CD1), and fresh male Beagle dog and male cynomolgus monkey hepatocytes were obtained from BioreclamationIVT (Baltimore, MD) and were similarly plated with Matrigel in 6- or 24-well plates and maintained overnight in InVitroGRO™HI medium with Torpedo™ antibiotic (BioreclamationIVT). The protocol described above for measuring AT-511 and its metabolites in Huh-7 cells was repeated with the five different hepatocytes. Untreated cells were collected at 24 h, and the protein content of the cell lysates were determined using a bicinchoninic acid protein assay kit to assess the number of cells in each incubation. Separately, plated human hepatocytes were incubated for 6 h with 100 μM AT-511, followed by washout periods of 0, 2, 6, 18 and 30 h.
(§2) S3 Protocol. LC-MS/MS analysis of AT-511 and metabolites in cultured cells. The supernatant extracts of each hepatocyte and Huh-7 cell incubation were separately analyzed by four different LC-MS/MS methods for quantitation of phosphoramidates, nucleosides, monophosphates, and triphosphates (methods 1, 2, 3 and 4, respectively), using synthetic reference standards of actually and potentially present compounds and using structurally related analogs as internal standards. Briefly, a Luna PFP (2), 5 µm, 100 x 4.6 mm column and an AB Sciex API-6500 mass spectrometer (ESI positive ion, MRM mode) were used for methods 1-3 and an XBridge Oligonucleotide, BEH C18, 2.5 µm, 50 x 2.1 mm column and a Thermo QE Plus mass spectrometer (electrospray, negative ion mode) were used for method 4. For methods 1 and 2, mobile phases A (10 mM ammonium acetate in water) and B (acetonitrile:methanol, 1:1, v/v) were used to elute samples (5 µL) at 1 mL/min with 15% B for 1.5 min followed by a linear gradient to 75% B over 1 min (method 1) or with 54% B for 1.3 min followed by a linear gradient to 90% B over 1.2 min. Method 3 was the same except mobile phase A was 0.3% acetic acid in water, […] and samples were eluted with 3% B for 3 min followed by a linear gradient to 55% B over 1.2 min. For method 4, mobile phase A (3 mM ammonium formate with 10 mM dimethylhexylamine (DMHA) in water) and mobile phase B (3 mM ammonium formate with 10 mM DMHA in acetonitrile:water, 1:1, v/v) were used to elute samples at 0.4 mL/min with 0% B for 1.5 min followed by a linear gradient to 100% B over 2 min and ending with an isocratic elution for 0.5 min at 100% B.

A short description of data set [2]: Monkey PK study, liver and heart tissue levels. The class given is in vivo, cynomolgus monkey. Conditions: cynomolgus monkey, in vivo. From the text: (§3) Monkey PK study. Male non-naïve cynomolgus monkeys were obtained from Hainan Jingang Laboratory Animal Co., Ltd. (Hainan, China), group housed during the 5-day acclimation period or individually housed during the study in stainless steel mesh cages, provided ad libitum access to RO water, fed twice daily (~120 g Certified Monkey Diet daily; Beijing Vital Keao Feed Co., Ltd., Beijing, China) and given daily treats of fresh fruit. Additional environmental enrichment included classical music and cartoons. Three groups of 5 monkeys each were administered 30, 100 or 300 mg/kg AT-527 as a powder filled in empty porcine hard gelatin capsules (size 0). The monkeys were fasted overnight prior to dosing and fed 4 h after dosing. Three dosages were selected to provide assessments of dose proportionality, the top two representing potential doses for a repeated oral dose toxicity study in monkeys, and the lowest predicted to be more therapeutically relevant. A pill gun was used to place the capsule beyond the root of the animals’ tongues and their mouths were held loosely closed for approximately 30 sec to allow them to move the jaw and swallow the capsule. Immediately following capsule administration, 20 mL of water was given by mouth and then the mouth was opened to ensure the capsule was swallowed. Blood samples (~0.6 mL) were collected up to 72 h from three animals per dose group, and up to 4 h from the remaining two animals in each group, at the same time points described for rats. […] Blood samples were collected with a syringe from a peripheral blood vessel from restrained, non-sedated animals, immediately transferred to pre-chilled tubes containing ~1 mg K2EDTA•2H20 and 20 μL of 5 mM dichlorvos solution, mixed and placed on ice until plasma was prepared by centrifugation as described for rats. Immediately after centrifugation, plasma samples were extracted with 4 volumes ISS2, and the supernatants were clarified by centrifugation (12,000 rpm, 10 min, 4°C) and stored at ≤ -60°C until analyzed by LC-MS/MS as described below. After the 4-hr blood collection, two monkeys per dose group were anesthetized with intravenous injection of pentobarbital sodium (60 mg/kg) and then euthanized as described for rats. […] All analytes were quantitated by LC-MS/MS as described below.
For the analysis of AT-9010 in rat tissue homogenate supernatant, aliquots were diluted 1:2 with water and injected onto an Agilent Zorbax Extend C18 5 μm, 2.1 × 50 mm column and a Sciex API 4000 mass spectrometer (ESI positive ion, MRM mode). Mobile phases A (0.001% ammonia and 0.18 mM DBAA in water (1:1, v/v) and B (10 mM dimethylhexylamine (DMHA) and 3 mM AA in 50% ACN in water) were used to elute samples (60 μL) at 0.7 mL/min with 2% B for 0.8 min followed by a linear gradient to 30% B over 0.4 min, isocratic elution at 30% B for 0.4 min, a linear gradient to 95% B over 0.4 min, and ending with 95% B for 0.4 min. The analysis of AT-9010 in monkey tissue homogenate supernatant was the same except the sample injection volume was 20 μL. Attempts to measure tissue levels of other potentially formed TPs, including 2,6-diaminopurine-2’-F-2’-C-methylribosyl-5’-triphosphate and 2-amino-6-methylaminopurine-2’-F-2’-C-methylribosyl-5’-triphosphate (M2-TP), also used this method.
For the analysis of M2 and M3 in monkey tissue homogenate supernatant, aliquots were diluted 1:3 with water and injected onto an Acuity HSS T3 1.8 μm, 2.1 × 50 mm column and a Sciex API 6500 mass spectrometer (ESI positive ion, MRM mode). Mobile phases A (0.3% FA and 10 mM AA in water and B (0.3% FA and 10 mM AA in 95% ACN in water) were used to elute samples (1 μL) at 0.6 mL/min with 0% B for 0.4 min followed by linear gradients to 30% B over 0.5 min and to 95% B over 0.2 min, ending with isocratic elution at 95% B for 0.4 min.

Data set [3] has as its system K562 cells. Description: K562 cytotoxicity (XTT, 3 days). The class given is cell-based, human. Conditions: 3 days. On the procedure:
(§4) Mitochondrial toxicity assay. K562 leukemia cells (ATCC, CCL-243) seeded in 96-well plates (1x10^5 cells/well) were incubated in triplicate with test or positive control compounds in RPMI containing glucose, 10% FBS and 2 mM L-glutamine. […] Viability was compared with untreated cells to determine TC50 values. Separately, K562 cells were incubated in triplicate with test compounds in glucose-free RPMI supplemented with 10 mM galactose. Test compounds diluted in RPMI containing glucose were evaluated in parallel.
(In general: Formazan colour is commonly taken as a measure of viable cells.)

The test system of data set [4] is K562 cells. Description: Mitochondrial toxicity assay (Mitochondrial ToxGlo, glucose/galactose). The format is cell-based, human. The procedure: as §4
The subject of another data set is PC3 cells. Description: PC3 cytotoxicity (XTT, 5 days). The class given is cell-based, human. Conditions: 5 days. The procedure: (§5) Mitobiogenesis toxicity assay. […] One plate was used to measure cell viability by XTT staining. Cells in the remaining two plates were fixed with 4% paraformaldehyde for 20 min, washed thrice with DPBS, and 0.5% acetic acid added for 5 min to block endogenous alkaline phosphatase activity. Nuclear DNA encoded Complex II SDH-A mitochondrial protein and mitochondrial encoded Complex IV COX-1 protein were measured spectrophotometrically using the Abcam Mitobiogenesis ELISA kit (Cambridge, UK) per the manufacturer’s instructions.

The subject of data set [5] is SDH-A protein in PC3 cells. Description: Mitobiogenesis toxicity assay, SDH-A. The class given is cell-based, human. Conditions: 5 days, read-out: Mitogenesis IC50 SDH-A. On the procedure: as §5
Data set [6] relates to COX-1 protein in PC3 cells. Description: Mitobiogenesis toxicity assay, COX-1. The format is cell-based, human. The conditions noted are these: 5 days, read-out: Mitogenesis IC50 COX-1. The procedure: as §5
Data set [7] in a line: Intracellular metabolism in mouse hepatocytes. The class given is in vitro ADME, mouse (CD1). Conditions: low to undetectable. The procedure: as §1, §2
A short description of data set [8]: Intracellular metabolism in dog hepatocytes. The class given is in vitro ADME, Beagle dog. The conditions noted are these: low to undetectable. The procedure:
as §1, §2

Data set [9] is described as follows: Rat pharmacokinetic study, plasma. The class given is in vivo, Sprague-Dawley rat. Conditions: for plasma concentration, individual rats: AT-527 500 mg/kg oral, male 1-3, female 7-9, BQL: <0.0017 AT-511, <0.0022 M1, <0.0032 AT-273, M4.
A short description of a further data set: Monkey PK study, plasma.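 For plasma concentration: concentrations in nmol/mL.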 Conditions: for plasma concentration: male cynomolgus monkeys; for AUC(0-t) / Cmax / MRT last / Tmax: male, cynomolgus, cynomolgus monkey, in vivo, po. The class given is in vivo, cynomolgus monkey.
Text: as §3
LC-MS/MS analysis of rat and monkey plasma and tissue homogenate supernatants. For the analysis of AT-511 in rat plasma, aliquots were extracted with 10 volumes ISS2. The supernatants were clarified by centrifugation (4000 rpm for 10 min at 4°C) and 3 μL samples were injected onto an Acuity BEH C18 1.7 μm, 2.1 × 50 mm column and a Sciex API 4000 mass spectrometer (ESI positive ion, MRM mode). Mobile phases A (0.025% formic acid (FA) and 1 mM ammonium acetate (AA) in 5% ACN in water) and B (0.025% FA and 1 mM AA in 95% ACN in water) were used to elute samples (3 μL) at 0.6 mL/min with 10% B for 0.3 min followed by linear gradients to 60% B over 0.6 min and to 90% B over 0.2 min, and ending with 90% B for 0.4 min.
PK data analysis. […] The linear/log trapezoidal rule was applied in obtaining the PK parameters.

Setting [10] is: both sexes, Sprague-Dawley, rat, in vivo, po, 500 mg/kg.

With `CNc1nc(N)nc2c1ncn2[C@@H]1O[C@H](COP(=O)(O)OP(=O)(O)OP(=O)(O)O)[C@@H](O)[C@@]1(C)F` [5’-TP of M2, 2-amino-6-methylaminopurine-2’-F-2’-C-methylribosyl-5’-triphosphate], the intracellular detection entry in [1] is listed as “not detected”. In [2], the “concentration in liver and heart tissue” value was under 110 pmol/g.
Consider `N#CC(C#N)=NNc1cccc(Cl)c1` [CCCP], for which the “Cytotoxicity TC50” value is 8.8 µM with K562 cells [3] (K562 cells, glucose medium, XTT) and 17.7 µM in the data set on PC3 cells (PC3 cells, XTT). Moreover, the IC50 in the data set with K562 cells [4] (K562, glucose-free galactose medium, 2 h, inhibition of cellular ATP levels, read-out: MF (Gal) IC50, mitochondrial function) was under 0.6 µM; with K562 cells [4] (K562, glucose-free galactose medium, 2 h, measure of necrosis, read-out: MI (Gal) IC50, cell membrane integrity), 7 µM; in data set [5], 13.5 µM; in data set [6], 15.1 µM.
On to `O=C(N[C@H](CO)[C@H](O)c1ccc([N+](=O)[O-])cc1)C(Cl)Cl` [Chloramphenicol], for which the “Cytotoxicity TC50” value was 50.9 µM with K562 cells [3] (human) and over 100 µM in the data set on PC3 cells (human). Further, the IC50 with K562 cells [4] (Homo sapiens, K562, 2 h, read-out: MF (Gal) IC50, mitochondrial function) is over 100 µM; with K562 cells [4] (Homo sapiens, K562, glucose-free galactose medium, 2 h, measure of necrosis, read-out: MI (Gal) IC50, cell membrane integrity), over 100 µM; in data set [5] (Homo sapiens, PC-3, 120 h) it was over 100 µM; in [6] (Homo sapiens, PC-3, 120 h) it was 95.3 µM.
As for `CNc1nc(N)nc2c1ncn2[C@@H]1O[C@H](CO)[C@@H](O)[C@@]1(C)F` [M4], the “intracellular levels of nucleoside metabolites” value in data set [1] (human hepatocytes, low to undetectable) is listed as under 10 pmol/10^6 cells; in data set [7] it was under 10 pmol/10^6 cells; in data set [8] it was under 10 pmol/10^6 cells. For the same molecule, the “plasma concentration, individual rats” value in [9] (48.0 h) and in [9] (72.0 h) was “BQL” each time. The AUC(0-t) in data set [9] (setting [10]) was 207 ± 56.1 µM·h; in “Monkey PK study, plasma” (30 mg/kg), 18.2 ± 1.7 µM·h; in “Monkey PK study, plasma” (100 mg/kg), 39.2 ± 15 µM·h; in “Monkey PK study, plasma” (300 mg/kg), 53.9 ± 31.7 µM·h. In addition, the Cmax in [9] (setting [10]) was determined as 28800 ± 8500 nM; in “Monkey PK study, plasma” (30 mg/kg) it was 670 ± 140 nM; in “Monkey PK study, plasma” (100 mg/kg) it was 1300 ± 490 nM; in the data set “Monkey PK study, plasma” (300 mg/kg), 1660 ± 490 nM. Further, the MRT last came to 6.41 ± 1.06 h in [9] (setting [10]); 22.4 ± 2.4 h in the data set “Monkey PK study, plasma” (30 mg/kg); 22.3 ± 4.1 h in “Monkey PK study, plasma” (100 mg/kg); 26.6 ± 9.6 h in the data set “Monkey PK study, plasma” (300 mg/kg). Moreover, the plasma concentration entry in the data set “Monkey PK study, plasma” (single oral AT-527 100 mg/kg, 0.500 h, monkey 1) is “BQL”; in the data set “Monkey PK study, plasma” (single oral AT-527 100 mg/kg, 72.0 h, monkey 2), “BQL”; in “Monkey PK study, plasma” (single oral AT-527 300 mg/kg, 0.500 h, monkey 1), “BQL”; in the data set “Monkey PK study, plasma” (single oral AT-527 300 mg/kg, 0.500 h, monkey 2), “BQL”; in “Monkey PK study, plasma” (single oral AT-527 300 mg/kg, 0.500 h, monkey 3), “BQL”; in the data set “Monkey PK study, plasma” (single oral AT-527 300 mg/kg, 1.00 h, monkey 1) it was “BQL”. Also, the plasma concentration entry in the data set “Monkey PK study, plasma” (single oral AT-527 300 mg/kg, 72.0 h, monkey 3) is “BQL”. In addition, the Tmax in “Monkey PK study, plasma” (30 mg/kg) was determined as 14.7 ± 8.1 h; in “Monkey PK study, plasma” (100 mg/kg) it was 15.3 ± 7.6 h; in the data set “Monkey PK study, plasma” (300 mg/kg) it was 17.3 ± 11.5 h.
